Experimental data: patent US9662327B2 (AGIOS PHARMACEUTICALS, INC, priority 2011, dated 2017)

Target: IDH1 R132H (Homo sapiens (Human), UniProt O75874, R132H)
Assay: Assays for IDH1 R132H Inhibitors (NADPH/aKG, resazurin detection)
Type: biochemical
Settings: IDH1 R132H enzyme, Table 2; read-out: IDHR132H Activity
Experimental: Assays were conducted in a volume of […] assay buffer (150 mM NaCl, 10 mM MgCl2, 20 mM Tris pH 7.5, 0.03% bovine serum albumin) as follows in a standard 384-well plate: To 25 ul of substrate mix (8 uM NADPH, 2 mM aKG), 1 μl of test compound was added in DMSO. […] The reaction was incubated for 50 minutes at room temperature, then 25 μl of detection mix (30 μM resazurin, […]) was added and the mixture further incubated for 5 minutes at room temperature.

Chain of IDH1 R132H (O75874 whole entry R132H): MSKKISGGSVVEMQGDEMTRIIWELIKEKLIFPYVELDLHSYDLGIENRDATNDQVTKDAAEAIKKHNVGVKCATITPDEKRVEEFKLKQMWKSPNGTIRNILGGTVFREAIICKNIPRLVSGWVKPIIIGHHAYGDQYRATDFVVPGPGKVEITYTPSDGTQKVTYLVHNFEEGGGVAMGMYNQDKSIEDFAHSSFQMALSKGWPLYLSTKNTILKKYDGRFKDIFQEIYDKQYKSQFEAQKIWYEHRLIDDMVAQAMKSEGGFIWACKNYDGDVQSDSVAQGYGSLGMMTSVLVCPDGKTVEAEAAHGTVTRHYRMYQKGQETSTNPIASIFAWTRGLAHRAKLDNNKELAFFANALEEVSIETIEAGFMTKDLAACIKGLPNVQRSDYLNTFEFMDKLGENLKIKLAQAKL

Compound	IC50
CC(C)c1nc(N2CCN(C(=O)c3cnc4ccccn34)[C@H](C)C2)c(C#N)c2c1COC(C)(C)C2 [Compound 222, (R)-6-(4-(imidazo[1,2-a]pyridine-3-carbonyl)-3-methylpiperazin-1-yl)-8-isopropyl-3,3-dimethyl-3,4-dihydro-1H-pyrano[3,4-c]pyridine-5-carbonitrile]	1000 to 10000 nM
CC(C)[C@@H]1CN(c2nc(C3CC3)c3c(c2C#N)CC(C)(C)OC3)CCN1C(=O)C1CCOC1 (stereo partly drawn) [Compound 266]	500 to 1000 nM
Cc1occc1C(=O)N1CCN(c2nc(C(C)C)c3c(c2C#N)CC(C)(C)OC3)C[C@H]1C(C)C [Compound 176, (R)-8-isopropyl-6-(3-isopropyl-4-(2-methylfuran-3-carbonyl)piperazin-1-yl)-3,3-dimethyl-3,4-dihydro-1H-pyrano[3,4-c]pyridine-5-carbonitrile]	< 500 nM
Cc1occc1C(=O)N1CCN(c2nc(C(C)C)c3c(c2C#N)CCOC3)CC1 [Compound 113, 8-isopropyl-6-(4-(2-methylfuran-3-carbonyl)piperazin-1-yl)-3,4-dihydro-1H-pyrano[3,4-c]pyridine-5-carbonitrile]	1000 to 10000 nM
CCOC(=O)C1CN(c2nc(C(C)C)c3c(c2C#N)CC(C)(C)OC3)CCN1C(=O)Cc1cccs1 (stereo not drawn) [Compound 332, ethyl 4-(5-cyano-8-isopropyl-3,3-dimethyl-3,4-dihydro-1H-pyrano[3,4-c]pyridin-6-yl)-1-(2-(thiophen-2-yl)acetyl)piperazine-2-carboxylate]	500 to 1000 nM
CC1CN(c2nc(C3CC3)c3c(c2C#N)CC(C)(C)OC3)CCN1C(=O)c1ccco1 (stereo not drawn) [Compound 135, 8-cyclopropyl-6-(4-(furan-2-carbonyl)-3-methylpiperazin-1-yl)-3,3-dimethyl-3,4-dihydro-1H-pyrano[3,4-c]pyridine-5-carbonitrile]	1000 to 10000 nM
Cc1ccc(NC(=O)N2CCN(c3nc(C4CC4)c4c(c3C#N)CC(C)(C)OC4)C[C@H]2C(C)C)cc1 [Compound 301, (R)-4-(5-cyano-8-cyclopropyl-3,3-dimethyl-3,4-dihydro-1H-pyrano[3,4-c]pyridin-6-yl)-2-isopropyl-N-p-tolylpiperazine-1-carboxamide]	1000 to 10000 nM
CC(C)c1nc(N2CCN(C(=O)Cc3cccs3)[C@H](C)C2)c(C#N)c2c1COC(C)(C)C2 [Compound 158, (R)-8-isopropyl-3,3-dimethyl-6-(3-methyl-4-(2-(thiophen-2-yl)acetyl)piperazin-1-yl)-3,4-dihydro-1H-pyrano[3,4-c]pyridine-5-carbonitrile]	500 to 1000 nM
C#CCNC(=O)N1CCN(c2nc(C3CCCCC3)c3c(c2C#N)CCOC3)C[C@H]1C [Compound 361, (R)-4-(5-cyano-8-cyclohexyl-3,4-dihydro-1H-pyrano[3,4-c]pyridin-6-yl)-2-methyl-N-(prop-2-ynyl)piperazine-1-carboxamide]	1000 to 10000 nM
CC(C)c1nc(N2CCN(C(=O)Cc3cc(F)cc(F)c3)[C@H](C)C2)c(C#N)c2c1COC(C)(C)C2 [Compound 159, (R)-6-(4-(2-(3,5-difluorophenyl)acetyl)-3-methylpiperazin-1-yl)-8-isopropyl-3,3-dimethyl-3,4-dihydro-1H-pyrano[3,4-c]pyridine-5-carbonitrile]	1000 to 10000 nM

Same assay, conditions: IDH1 R132H enzyme, Table 3; read-out: R132H IC50

Compound	IC50
CC1CN(c2nc(C3CC3)c3c(c2C#N)CC(C)(C)OC3)CC(F)CN1C(=O)C1CC1 (stereo not drawn) [Compound 474, 6-(4-(cyclopropanecarbonyl)-6-fluoro-3-methyl-1,4-diazepan-1-yl)-8-cyclopropyl-3,3-dimethyl-3,4-dihydro-1H-pyrano[3,4-c]pyridine-5-carbonitrile]	500 to 1000 nM
CC1(C)Cc2c(C#N)c(N3CCN(C(=O)C4CC4)C(CC(F)(F)F)C3)nc(C3CC3)c2CO1 (stereo not drawn) [Compound 471, 6-(4-(cyclopropanecarbonyl)-3-(2,2,2-trifluoroethyl)piperazin-1-yl)-8-cyclopropyl-3,3-dimethyl-3,4-dihydro-1H-pyrano[3,4-c]pyridine-5-carbonitrile]	500 to 1000 nM
